# Laboratory results reported in patent US9242984B2, “Pyrazolyl derivatives as Syk inhibitors” (Merck Sharp & Dohme Corp., priority 2012, dated 2016).
# pIC50: −log10 of the molar value. Read-outs that look alike come from different tables or passages of the source.
# Molecular target: T1, recombinant human Syk (GST-hSyk fusion protein) (Homo sapiens, UniProt P43405)
# T1 construct: purchased Carna Biosciences 08-176
# Test: Homogeneous Time-Resolved Fluorescence (HTRF) assay for the recombinant human Syk enzyme
# Type: biochemical
# Conditions: 10-dose titration, 25 μM ATP
# Outline: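 GST-hSyk (5 pM) preincubated 10 min with compound (0.1% DMSO) in 15 mM Tris-HCl pH 7.5, 2 mM DTT; reaction started with 250 nM biotinylated peptide, 5 mM Mg, 25 μM ATP, 45 min, room temperature. EDTA quench, Eu-anti-phosphotyrosine/SA-APC HTRF read after 30 min; IC50 from 10-dose titration (10 μM–0.508 nM), four-parameter fit.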
# [1] = IC50 class, read-out: rhSYK Activity
Compound,pIC50 [1],pIC50 (read-out: rhSYK IC50)
"Cc1cc(Nc2nccc(C(F)F)n2)cc(-c2cnn(CCNC(=O)NC(C)(C)C)c2)c1 [Example 27.15, 1-tert-butyl-3-{2-[4-(3-{[4-(difluoromethyl)pyrimidin-2-yl]amino}-5-methylphenyl)-1H-pyrazol-1-yl]ethyl}urea]",≥ 7.00,
"CCNC(=O)NCCn1cc(-c2cc(C)cc(Nc3nccc(C(F)F)n3)c2)cn1 [Example 27.16, 1-{2-[4-(3-{[4-(difluoromethyl)pyrimidin-2-yl]amino}-5-methylphenyl)-1H-pyrazol-1-yl]ethyl}-3-ethylurea]",≥ 7.00,
"Cc1cc(Nc2nccc(C(F)F)n2)cc(-c2cnn(CCNC(=O)NCC3CCOCC3)c2)c1 [Example 27.17, 1-{2-[4-(3-{[4-(difluoromethyl)pyrimidin-2-yl]amino}-5-methylphenyl)-1H-pyrazol-1-yl]ethyl}-3-(tetrahydro-2H-pyran-4-ylmethyl)urea]",≥ 7.00,
"Cc1cc(Nc2nccc(C(F)F)n2)cc(-c2cnn(CCNC(=O)OCCF)c2)c1 [Example 27.18, 2-fluoroethyl {2-[4-(3-{[4-(difluoromethyl)pyrimidin-2-yl]amino}-5-methylphenyl)-1H-pyrazol-1-yl]ethyl}carbamate]",≥ 7.00,
N-[2-methyl-6-(1-methyl-1H-pyrazol-4-yl)pyridin-4-yl]-4-(trifluoromethyl)-pyrimidin-2-amine [Example 1.43],6.00 to 7.00,

# More lines, now with the values ahead:
pIC50 [1],pIC50 (read-out: rhSYK IC50),Compound
,8.70,"Cc1cc(Nc2nccc(C(F)F)n2)cc(-c2cnn(CC3(O)CCC3)c2)c1 [Example 29.1, 1-((4-(3-((4-(Difluoromethyl)pyrimidin-2-yl)amino)-5-methylphenyl)-1H-pyrazol-1-yl)methyl)cyclobutanol]"
≥ 7.00,,"Cc1cc(Nc2cc(C(F)F)ccn2)nc(-c2cnn(CC3(O)CCC3)c2)c1 [Example 29.2, 1-{[4-(6-{[4-(difluoromethyl)pyridin-2-yl]amino}-4-methylpyridin-2-yl)-1H-pyrazol-1-yl]methyl}cyclobutanol]"
≥ 7.00,,"Cc1ccnc(Nc2cc(C)cc(-c3cnn(CC4(O)CCC4)c3)n2)c1 [Example 29.3, 1-[(4-{4-methyl-6-[(4-methylpyridin-2-yl)amino]pyridin-2-yl}-1H-pyrazol-1-yl)methyl}cyclobutanol]"
≥ 7.00,,"OC1(Cn2cc(-c3cccc(Nc4nccc(C(F)F)n4)c3)cn2)CCC1 [Example 29.4, 1-{[4-(3-{[4-(difluoromethyl)pyrimidin-2-yl]amino}phenyl)-1H-pyrazol-1-yl]methyl}cyclobutanol]"
≥ 7.00,,"Cc1cc(Nc2nccc(C)n2)cc(-c2cnn(CC3(O)CCC3)c2)c1 [Example 29.5, 1-[(4-{3-methyl-5-[(4-methylpyrimidin-2-yl)amino]phenyl}-1H-pyrazol-1-yl)methyl}cyclobutanol]"
≥ 7.00,,"Cc1cc(Nc2ncc(F)c(C(F)F)n2)cc(-c2cnn(CC3(O)CCC3)c2)c1 [Example 29.6, 1-{[4-(3-{[4-(difluoromethyl)-5-fluoropyrimidin-2-yl]amino}-5-methylphenyl)-1H-pyrazol-1-yl]methyl}cyclobutanol]"
≥ 7.00,,"Cc1cc(Nc2cc(C3CC3)ccn2)nc(-c2cnn(CC3(O)CCC3)c2)c1 [Example 29.7, 1-[(4-{6-[(4-cyclopropylpyridin-2-yl)amino]-4-methylpyridin-2-yl}-1H-pyrazol-1-yl)methyl]cyclobutanol]"
